Reference: patent publication US8791129B2, “Phenylquinazoline derivatives” (Merck Patent GmbH, priority 2010, dated 2014)

target: T1, Recombinant human HSP90α (Homo sapiens, UniProt P07900); experiment: Radioligand filter binding test with [3H]17AAG for the measurement of HSP90 inhibitors; settings: competition with [3H]17AAG 0.08 μM; HSP90 1.5 μg/assay; 22° C., 30 min; read-out: IC50 (HSP90 inhibition)
T1 construct: host or cells: E. coli
Text: Test Method for the Measurement of HSP90 Inhibitors
The binding of geldanamycin or 17-allylamino-17-demethoxygeldanamycin (17AAG) to HSP90 and competitive inhibition thereof can be utilised in order to determine the inhibitory activity of the compounds according to the invention (Carreras et al. 2003, Chiosis et al. 2002).
In the specific case, a radioligand filter binding test is used. The radioligand used here is tritium-labelled 17-allylaminogeldanamycin, [3H]17AAG. This filter binding test allows a targeted search for inhibitors which interfere with the ATP binding site.
Recombinant human HSP90α (E. coli expressed, 95% purity);
[3H]17AAG (17-allylaminogeldanamycin, [allylamino-2,3-^3H. Specific activity: 1.11×10^12 Bq/mmol (Moravek, MT-1717);
HEPES filter buffer (50 mM HEPES, pH 7.0, 5 mM MgCl2, BSA 0.01%)
Multiscreen FB (1 μm) filter plate (Millipore, MAFBNOB 50).
The 96-well microtitre filter plates are firstly irrigated and coated with 0.1% of polyethyleneimine.
The test is carried out under the following conditions:
Reaction temperature 22° C.
Reaction time: 30 min., shaking at 800 rpm
50 mM HEPES HCl, pH 7.0, 5 mM MgCl2, 0.01% (w/v) of BSA
At the end of the reaction, the supernatant in the filter plate is removed by suction with the aid of a vacuum manifold (Multiscreen Separation System, Millipore), and the filter is washed twice.
The filter plates are then measured in a beta counter (Microbeta, Wallac) with scintillator (Microscint 20, Packard).
“% of control” is determined from the “counts per minutes” values, and the IC-50 value of a compound is calculated therefrom.

| IC50 | SMILES |
| --- | --- |
| 0.01 to 1 µM | CN(CCO)Cc1ccccc1-c1ccc2nc(N)nc(C(=O)N3Cc4ccccc4C3)c2c1 |
| 0.01 to 1 µM | CCN(CCO)Cc1ccccc1-c1ccc2nc(N)nc(C(=O)N3Cc4ccccc4C3)c2c1 |
| 0.01 to 1 µM | Nc1nc(C(=O)N2Cc3ccccc3C2)c2cc(-c3ccccc3CN3CCC(O)CC3)ccc2n1 |
| 0.01 to 1 µM | CC(C)(C)NCc1ccccc1-c1ccc2nc(N)nc(C(=O)N3Cc4ccccc4C3)c2c1 |
| 0.01 to 1 µM | Nc1nc(C(=O)N2Cc3ccccc3C2)c2cc(-c3ccccc3CN3CCCC3)ccc2n1 |
| 0.01 to 1 µM | CC1CCCN1Cc1ccccc1-c1ccc2nc(N)nc(C(=O)N3Cc4ccccc4C3)c2c1 (centres unmarked) |
| 0.01 to 1 µM | Nc1nc(C(=O)N2Cc3ccccc3C2)c2cc(-c3ccccc3CN3CCC(CO)C3)ccc2n1 (centres unmarked) |
| 0.01 to 1 µM | Nc1nc(C(=O)N2Cc3ccccc3C2)c2cc(-c3ccccc3CN3CCC(O)C3)ccc2n1 (centres unmarked) |
| 0.01 to 1 µM | Nc1nc(C(=O)N2Cc3ccccc3C2)c2cc(-c3ccccc3CN3CCC(N)C3)ccc2n1 (centres unmarked) |
| 0.01 to 1 µM | CCN(C)Cc1ccccc1-c1ccc2nc(N)nc(C(=O)N3Cc4ccccc4C3)c2c1 |
| 0.01 to 1 µM | CCN(CC)Cc1ccccc1-c1ccc2nc(N)nc(C(=O)N3Cc4ccccc4C3)c2c1 |
| 0.01 to 1 µM | CNC(=O)C1CCCN1Cc1ccccc1-c1ccc2nc(N)nc(C(=O)N3Cc4ccccc4C3)c2c1 (centres unmarked) |
| 0.01 to 1 µM | Nc1nc(C(=O)N2Cc3ccccc3C2)c2cc(-c3ccccc3CN3CCCC3C(=O)NCCO)ccc2n1 (centres unmarked) |
| 0.01 to 1 µM | Nc1nc(C(=O)N2Cc3ccccc3C2)c2cc(-c3ccccc3CNC3CC3)ccc2n1 |
| 0.01 to 1 µM | Nc1nc(C(=O)N2Cc3ccccc3C2)c2cc(-c3ccccc3CNC3CCC3)ccc2n1 |
| 0.01 to 1 µM | Nc1nc(C(=O)N2Cc3ccccc3C2)c2cc(-c3ccccc3CN3CCC(F)(F)C3)ccc2n1 |
| 0.01 to 1 µM | CC1CCC(C)N1Cc1ccccc1-c1ccc2nc(N)nc(C(=O)N3Cc4ccccc4C3)c2c1 (centres unmarked) |
| 0.01 to 1 µM | Nc1nc(C(=O)N2Cc3ccccc3C2)c2cc(-c3ccccc3CN3CC[C@H](F)C3)ccc2n1 |
| 0.01 to 1 µM | C[C@@H]1CCCN1Cc1ccccc1-c1ccc2nc(N)nc(C(=O)N3Cc4ccccc4C3)c2c1 |
| 0.01 to 1 µM | CC(C)(C)NCc1cc(F)ccc1-c1ccc2nc(N)nc(C(=O)N3Cc4ccccc4C3)c2c1 |
| 0.01 to 1 µM | CC1CCCN1Cc1cc(F)ccc1-c1ccc2nc(N)nc(C(=O)N3Cc4ccccc4C3)c2c1 (centres unmarked) |
| 0.01 to 1 µM | CC1CCCN1Cc1ccc(F)cc1-c1ccc2nc(N)nc(C(=O)N3Cc4ccccc4C3)c2c1 (centres unmarked) |

| IC50 | SMILES |
| --- | --- |
| 0.01 to 1 µM | CC(C)(C)NCc1ccc(F)cc1-c1ccc2nc(N)nc(C(=O)N3Cc4ccccc4C3)c2c1 |
| 0.01 to 1 µM | NC(=O)CNCc1ccccc1-c1ccc2nc(N)nc(C(=O)N3Cc4ccccc4C3)c2c1 |
| 0.01 to 1 µM | Nc1nc(C(=O)N2Cc3ccccc3C2)c2cc(-c3ccccc3CN(CCO)CCO)ccc2n1 |
| 0.01 to 1 µM | C[C@H]1CCCN1Cc1ccccc1-c1ccc2nc(N)nc(C(=O)N3Cc4ccccc4C3)c2c1 |
| 0.01 to 1 µM | CN(Cc1ccccc1-c1ccc2nc(N)nc(C(=O)N3Cc4ccccc4C3)c2c1)C1CC1 |
| 0.01 to 1 µM | CCN(C)Cc1ccc(F)cc1-c1ccc2nc(N)nc(C(=O)N3Cc4ccccc4C3)c2c1 |
| 0.01 to 1 µM | CN1CCN(Cc2ccc(F)cc2-c2ccc3nc(N)nc(C(=O)N4Cc5ccccc5C4)c3c2)CC1 |
| 0.01 to 1 µM | CN1CCN(Cc2cc(F)ccc2-c2ccc3nc(N)nc(C(=O)N4Cc5ccccc5C4)c3c2)CC1 |
| 0.01 to 1 µM | CCN(CCO)Cc1ccc(F)cc1-c1ccc2nc(N)nc(C(=O)N3Cc4ccccc4C3)c2c1 |
| 0.01 to 1 µM | CC(C)(C)NCc1cc(F)c(F)cc1-c1ccc2nc(N)nc(C(=O)N3Cc4ccccc4C3)c2c1 |
| 0.01 to 1 µM | CCN(C)Cc1cc(F)c(F)cc1-c1ccc2nc(N)nc(C(=O)N3Cc4ccccc4C3)c2c1 |
| 0.01 to 1 µM | CCN(CC)Cc1cc(F)c(F)cc1-c1ccc2nc(N)nc(C(=O)N3Cc4ccccc4C3)c2c1 |
| 0.01 to 1 µM | Nc1nc(C(=O)N2Cc3ccccc3C2)c2cc(-c3cc(F)c(F)cc3CN3CCCC3)ccc2n1 |
| 0.01 to 1 µM | CC1CCC(C)N1Cc1cc(F)c(F)cc1-c1ccc2nc(N)nc(C(=O)N3Cc4ccccc4C3)c2c1 (centres unmarked) |
| 0.01 to 1 µM | CC1CCCN1Cc1cc(F)c(F)cc1-c1ccc2nc(N)nc(C(=O)N3Cc4ccccc4C3)c2c1 (centres unmarked) |
| 0.01 to 1 µM | CN(Cc1cc(F)c(F)cc1-c1ccc2nc(N)nc(C(=O)N3Cc4ccccc4C3)c2c1)C(C)(C)C |
| 0.01 to 1 µM | CN1CCN(Cc2cc(F)c(F)cc2-c2ccc3nc(N)nc(C(=O)N4Cc5ccccc5C4)c3c2)CC1 |
| 0.01 to 1 µM | CCN(CC)Cc1ccc(F)cc1-c1ccc2nc(N)nc(C(=O)N3Cc4ccccc4C3)c2c1 |
| 0.01 to 1 µM | Nc1nc(C(=O)N2Cc3ccccc3C2)c2cc(-c3cc(F)ccc3CN3CCC(O)CC3)ccc2n1 |
| 0.01 to 1 µM | CC(C)(C)NCc1cc2c(cc1-c1ccc3nc(N)nc(C(=O)N4Cc5ccccc5C4)c3c1)OCO2 |
| 1 to 10 µM | COc1cc(CO)c(-c2ccc3nc(N)nc(C(=O)N4Cc5ccccc5C4)c3c2)cc1OC |
| 0.01 to 1 µM | NCc1cc(F)c(F)cc1-c1ccc2nc(N)nc(C(=O)N3Cc4ccccc4C3)c2c1 |

| IC50 | SMILES |
| --- | --- |
| 0.01 to 1 µM | NCCC(=O)NCc1cc(F)c(F)cc1-c1ccc2nc(N)nc(C(=O)N3Cc4ccccc4C3)c2c1 |
| 0.01 to 1 µM | CN(C)CCC(=O)NCc1cc(F)c(F)cc1-c1ccc2nc(N)nc(C(=O)N3Cc4ccccc4C3)c2c1 |
| 0.01 to 1 µM | NCCC(=O)OCc1cc(F)c(F)cc1-c1ccc2nc(N)nc(C(=O)N3Cc4ccccc4C3)c2c1 |
| 0.01 to 1 µM | CN(C)CCCOCc1cc(F)c(F)cc1-c1ccc2nc(N)nc(C(=O)N3Cc4ccccc4C3)c2c1 |
| 0.01 to 1 µM | CN(C)CCOCc1cc(F)c(F)cc1-c1ccc2nc(N)nc(C(=O)N3Cc4ccccc4C3)c2c1 |
| 0.01 to 1 µM | NCCCOCc1cc(F)c(F)cc1-c1ccc2nc(N)nc(C(=O)N3Cc4ccccc4C3)c2c1 |
| 0.01 to 1 µM | Nc1nc(C(=O)N2Cc3ccccc3C2)c2cc(-c3cc(F)c(F)cc3COCCO)ccc2n1 |
| 0.01 to 1 µM | Nc1nc(C(=O)N2Cc3ccccc3C2)c2cc(-c3cc(F)c(F)cc3COCCOCCOCCO)ccc2n1 |
| 0.01 to 1 µM | NCCC[C@H](N)C(=O)OCc1cc(F)c(F)cc1-c1ccc2nc(N)nc(C(=O)N3Cc4ccccc4C3)c2c1 |
| 0.01 to 1 µM | CN(C)CCC(=O)OCc1cc(F)c(F)cc1-c1ccc2nc(N)nc(C(=O)N3Cc4ccccc4C3)c2c1 |
| 0.01 to 1 µM | NCCCC[C@H](N)C(=O)OCc1cc(F)c(F)cc1-c1ccc2nc(N)nc(C(=O)N3Cc4ccccc4C3)c2c1 |
| 0.01 to 1 µM | NOCc1cc(F)c(F)cc1-c1ccc2nc(N)nc(C(=O)N3Cc4ccccc4C3)c2c1 |
| 0.01 to 1 µM | Nc1nc(C(=O)N2Cc3ccccc3C2)c2cc(-c3cc(F)c(F)cc3COP(=O)(O)O)ccc2n1 |
| 0.01 to 1 µM | NCCCCC(N)C(=O)OCc1ccc(F)cc1-c1ccc2nc(N)nc(C(=O)N3Cc4ccccc4C3)c2c1 (centres unmarked) |
| 0.01 to 1 µM | CC(C)(C)OP(=O)(OCc1cc(F)c(F)cc1-c1ccc2nc(N)nc(C(=O)N3Cc4ccccc4C3)c2c1)OC(C)(C)C |
| 0.01 to 1 µM | CC(C)CC(N)C(=O)OCc1cc(F)c(F)cc1-c1ccc2nc(N)nc(C(=O)N3Cc4ccccc4C3)c2c1 (centres unmarked) |
| 0.01 to 1 µM | CC(C)(C)C(=O)OCc1cc(F)c(F)cc1-c1ccc2nc(N)nc(C(=O)N3Cc4ccccc4C3)c2c1 |
| 0.01 to 1 µM | CC(C)(C)OC(=O)NCCCCCC(=O)OCc1cc(F)c(F)cc1-c1ccc2nc(N)nc(C(=O)N3Cc4ccccc4C3)c2c1 |
| 0.01 to 1 µM | CC(C)(C)OC(=O)N1CCC[C@H]1C(=O)OCc1cc(F)c(F)cc1-c1ccc2nc(N)nc(C(=O)N3Cc4ccccc4C3)c2c1 |
| 0.01 to 1 µM | NCCCC[C@H](N)C(=O)OCc1ccccc1-c1ccc2nc(N)nc(C(=O)N3Cc4ccccc4C3)c2c1 |
| 0.01 to 1 µM | Nc1nc(C(=O)N2Cc3ccccc3C2)c2cc(-c3cc(F)c(F)cc3COC(=O)[C@@H]3CCCN3)ccc2n1 |
